Data reported in ChEMBL document CHEMBL1201862, “PubChem BioAssay data set” (2004).
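96-well plates; 48 h exposure; 5 concentrations. Endpoints by linear interpolation between flanking doses. Not reached: highest tested concentration assigned. GI50 is the concentration that inhibits growth by half.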 The source made the active and inactive calls. Rule as the data show it: active = GI50 up to about 1.1 µM and inactive = higher.

Key:
Assay in all cases: growth of human tumour cells (NCI), 48 h
DMS-273 = system: DMS-273
SF-539 = system: SF-539
U-251 = system: U-251
LOX IMVI = system: LOX IMVI
OVCAR-4 = system: OVCAR-4
SK-MEL-5 = system: SK-MEL-5
HOP-18 = system: HOP-18
SNB-75 = system: SNB-75
HCC 2998 = system: HCC 2998
A549 = system: A549
EKVX = system: EKVX
TK-10 = system: TK-10
ACHN = system: ACHN
SK-MEL-2 = system: SK-MEL-2
OVCAR-3 = system: OVCAR-3
RPMI-8226 = system: RPMI-8226
OVCAR-5 = system: OVCAR-5
HCT-15 = system: HCT-15
SF-268 = system: SF-268
HCT-116 = system: HCT-116
SN12C = system: SN12C
SW-620 = system: SW-620
IGROV-1 = system: IGROV-1
NCI-H226 = system: NCI-H226
XF498 = system: XF498
LXFL 529 = system: LXFL 529
MOLT-4 = system: MOLT-4
CCRF-CEM = system: CCRF-CEM
NCI-H460 = system: NCI-H460
RXF 393 = system: RXF 393
CAKI-1 = system: CAKI-1
DLD-1 = system: DLD-1
M19-MEL = system: M19-MEL
K562 = system: K562
NCI-H522 = system: NCI-H522
SNB-19 = system: SNB-19
SF-295 = system: SF-295
SK-MEL-28 = system: SK-MEL-28
OVCAR-8 = system: OVCAR-8
Malme-3M = system: Malme-3M
HOP-62 = system: HOP-62
M14 = system: M14
HT-29 = system: HT-29
KM-20L2 = system: KM-20L2
UACC-62 = system: UACC-62
A498 = system: A498
RXF 631 = system: RXF 631
NCI-H23 = system: NCI-H23
HOP-92 = system: HOP-92
786-0 = system: 786-0
KM12 = system: KM12
HL-60 = system: HL-60
COLO 205 = system: COLO 205
DMS-114 = system: DMS-114
SK-OV-3 = system: SK-OV-3
SNB-78 = system: SNB-78
UO-31 = system: UO-31
SR = system: SR
UACC-257 = system: UACC-257

Measured: GI50

CCOC(=O)/C(=C/c1ccccc1Br)P(=O)(OCC)OCC
1.78 µM: HCT-15
active: RPMI-8226 0.815 µM | CCRF-CEM 0.738 µM | K562 0.298 µM | NCI-H522 0.927 µM | HL-60 0.226 µM
inactive: DMS-273 1.26 µM | SF-539 2.4 µM | U-251 1.59 µM | LOX IMVI 1.39 µM | OVCAR-4 1.58 µM | SK-MEL-5 1.63 µM | HOP-18 3.34 µM | SNB-75 1.48 µM | HCC 2998 1.78 µM | A549 2.67 µM | EKVX 2.58 µM | TK-10 3.23 µM | ACHN 2.57 µM | SK-MEL-2 1.84 µM | OVCAR-3 2.81 µM | OVCAR-5 2.53 µM | SF-268 2.9 µM | HCT-116 3.15 µM | SN12C 2.06 µM | SW-620 1.28 µM | IGROV-1 3.28 µM | NCI-H226 3.07 µM | XF498 1.93 µM | LXFL 529 1.29 µM | MOLT-4 2.28 µM | NCI-H460 2.87 µM | RXF 393 1.17 µM | CAKI-1 2.09 µM | DLD-1 1.29 µM | M19-MEL 1.55 µM | SNB-19 2.49 µM | SF-295 3.96 µM | SK-MEL-28 2.03 µM | OVCAR-8 1.91 µM | Malme-3M 1.84 µM | HOP-62 3.72 µM | M14 1.54 µM | HT-29 2.82 µM | KM-20L2 2.25 µM | UACC-62 1.24 µM | A498 3.19 µM | RXF 631 2.5 µM | NCI-H23 1.73 µM | HOP-92 1.46 µM | 786-0 1.34 µM | KM12 1.87 µM

CCOC(=O)C1=C(C)NC2=C(C(=O)N(c3ccccc3)C2c2ccccc2)C1c1ccccc1 (stereo not given)
16 µM: HCT-15
inactive: SF-539 17.8 µM | U-251 15.1 µM | LOX IMVI 18.1 µM | COLO 205 18.7 µM | SK-MEL-5 15.1 µM | DMS-114 16.7 µM | SK-OV-3 17.1 µM | HOP-18 20.4 µM | SNB-75 12.3 µM | HCC 2998 17.7 µM | A549 17.8 µM | EKVX 17.9 µM | TK-10 18.9 µM | ACHN 14.1 µM | SK-MEL-2 17.4 µM | OVCAR-3 12.3 µM | RPMI-8226 17.1 µM | OVCAR-5 16.3 µM | SF-268 15.7 µM | HCT-116 16.9 µM | SN12C 17.9 µM | SNB-78 19.4 µM | SW-620 19.8 µM | IGROV-1 15.4 µM | UO-31 19.8 µM | NCI-H226 19.9 µM | XF498 18.1 µM | LXFL 529 16 µM | MOLT-4 19.8 µM | CCRF-CEM 21.2 µM | CAKI-1 16 µM | DLD-1 16.5 µM | M19-MEL 17.3 µM | K562 29.9 µM | SR 16.9 µM | NCI-H522 12.6 µM | SF-295 > 10 µM | SK-MEL-28 17.7 µM | OVCAR-8 20.1 µM | Malme-3M 17.9 µM | UACC-257 18.2 µM | HOP-62 17.1 µM | M14 16.7 µM | HT-29 19.9 µM | UACC-62 12.6 µM | RXF 631 16.1 µM | NCI-H23 17.2 µM | HOP-92 11.2 µM | 786-0 18.9 µM | KM12 17.1 µM | HL-60 26.1 µM

CCC(CO)COC(=O)/C=C/C(=O)OCC(CC)CO (stereo not given)
inactive: DMS-273 > 100 µM | SF-539 > 100 µM | U-251 > 100 µM | LOX IMVI > 100 µM | COLO 205 > 100 µM | OVCAR-4 > 100 µM | SK-MEL-5 > 100 µM | DMS-114 > 100 µM | SK-OV-3 > 100 µM | HOP-18 > 100 µM | SNB-75 73.5 µM | HCC 2998 > 100 µM | A549 > 100 µM | EKVX > 55.5 µM | TK-10 > 100 µM | ACHN > 100 µM | SK-MEL-2 > 100 µM | OVCAR-3 > 62.5 µM | RPMI-8226 33.3 µM | OVCAR-5 > 100 µM | SF-268 > 84.3 µM | HCT-116 > 74.3 µM | SN12C > 100 µM | SNB-78 > 100 µM | SW-620 > 89.1 µM | IGROV-1 > 100 µM | UO-31 > 100 µM | NCI-H226 > 100 µM | XF498 > 100 µM | LXFL 529 78.7 µM | MOLT-4 45.1 µM | CCRF-CEM 27.4 µM | NCI-H460 > 100 µM | RXF 393 > 65.3 µM | CAKI-1 > 100 µM | DLD-1 > 85.9 µM | M19-MEL > 100 µM | K562 48.6 µM | SR 30.9 µM | NCI-H522 > 61.5 µM | SNB-19 > 100 µM | SF-295 > 100 µM | SK-MEL-28 > 100 µM | OVCAR-8 > 76.2 µM | Malme-3M > 61 µM | UACC-257 > 100 µM | HOP-62 > 100 µM | M14 > 71.8 µM | HT-29 > 91 µM | KM-20L2 > 100 µM | UACC-62 > 72.4 µM | A498 > 100 µM | RXF 631 > 100 µM | NCI-H23 > 84.7 µM | HOP-92 > 81.8 µM | 786-0 > 100 µM | KM12 > 100 µM | HL-60 22.1 µM
> 73.3 µM: HCT-15

Cc1cc2c(C)nn(Cc3ccc(Cl)cc3)c2c(C#N)c1C
inactive: DMS-273 > 100 µM | SF-539 > 100 µM | U-251 > 100 µM | COLO 205 > 100 µM | SK-OV-3 > 100 µM | HOP-18 > 100 µM | HCC 2998 > 100 µM | A549 > 100 µM | EKVX > 100 µM | TK-10 > 100 µM | ACHN > 100 µM | SK-MEL-2 > 100 µM | OVCAR-3 > 100 µM | RPMI-8226 > 100 µM | OVCAR-5 > 100 µM | SF-268 > 100 µM | HCT-116 > 100 µM | SN12C > 100 µM | SNB-78 > 100 µM | SW-620 > 100 µM | IGROV-1 > 100 µM | UO-31 > 100 µM | NCI-H226 > 100 µM | XF498 39.1 µM | LXFL 529 > 100 µM | MOLT-4 > 10 µM | CCRF-CEM > 100 µM | RXF 393 45.9 µM | M19-MEL > 100 µM | SR > 100 µM | SNB-19 63.5 µM | SF-295 46.2 µM | SK-MEL-28 > 100 µM | OVCAR-8 > 100 µM | Malme-3M > 100 µM | UACC-257 > 100 µM | HOP-62 > 100 µM | KM-20L2 > 100 µM | UACC-62 > 100 µM | RXF 631 > 100 µM | NCI-H23 > 100 µM | HOP-92 35.6 µM | 786-0 63.2 µM | HL-60 > 100 µM
> 100 µM: HCT-15

CC(=O)O[C@@H]1CC[C@@]2(C)C(=O)C34C[C@@]5(C)C([C@@H](C)CCCC(C)C)CCC5(C)[C@](O)(O3)C(=O)[C@H]4C2C1(C)C (stereo not given in full)
inactive: DMS-273 13.4 µM | SF-539 19.3 µM | U-251 14.3 µM | LOX IMVI 15.6 µM | COLO 205 14.5 µM | OVCAR-4 13.2 µM | SK-MEL-5 15 µM | DMS-114 17.4 µM | SK-OV-3 18.3 µM | HOP-18 15.8 µM | SNB-75 15.7 µM | HCC 2998 11.3 µM | A549 13.3 µM | EKVX 18.4 µM | TK-10 16.6 µM | ACHN 14 µM | SK-MEL-2 19.8 µM | OVCAR-3 12.3 µM | RPMI-8226 13.4 µM | OVCAR-5 15.9 µM | SF-268 15.8 µM | HCT-116 14 µM | SN12C 13.2 µM | SNB-78 20.8 µM | SW-620 11.5 µM | IGROV-1 15.4 µM | UO-31 13.3 µM | NCI-H226 15.7 µM | LXFL 529 16.7 µM | MOLT-4 7.74 µM | CCRF-CEM 4.3 µM | NCI-H460 6.04 µM | CAKI-1 14.7 µM | DLD-1 18 µM | M19-MEL 13.8 µM | K562 9.42 µM | SR 16 µM | NCI-H522 12.3 µM | SNB-19 16.6 µM | SF-295 16.3 µM | SK-MEL-28 18.9 µM | OVCAR-8 16.5 µM | Malme-3M 18.5 µM | UACC-257 17 µM | HOP-62 17.7 µM | M14 13.1 µM | HT-29 13 µM | KM-20L2 17.4 µM | UACC-62 18.2 µM | A498 22.2 µM | RXF 631 12.6 µM | NCI-H23 13.4 µM | HOP-92 19.1 µM | 786-0 12.9 µM | KM12 11.3 µM | HL-60 10.2 µM
13.5 µM: HCT-15
